What was measured:
[1] = test system: solventogenic Clostridia (ABE fermentation); settings: cited from earlier work; for Inhibitory concentration: ABE fermentation
[2] = Organic-solvent extraction of microbial inhibitors from an agro-waste hydrolysate mimic; assay type: physicochemical; settings: for Inhibitor extraction, phase separation by centrifugal force / Inhibitor extraction, phase separation by separating funnel: solvent bis-(2-ethylhexyl) sebacate; for Ferulic acid removal / Furfural removal / HMF removal / Syringaldehyde removal / TRS removal / Vanillic acid removal / Vanillin removal / TRS (total reducing sugar) after extraction: Vaqueous:Vorganic = 2:1; for TRS (total reducing sugar) after extraction: standard 52.00 g/L
Excerpt: Media composition was designed according to the inhibitory compound limit concentration reported in the literature for bio-butanol producing solventogenic Clostridia (Baral et al. Microbial inhibitors: formation and effects on acetone-butanol-ethanol fermentation of lignocellulosic biomass. Applied microbiology and biotechnology, Vol. 98(22), 2014: 9151-9172; Qureshi et al. Production of butanol (a biofuel) from agricultural residues: Part I—Use of barley straw hydrolysate. Biomass and bioenergy, Vol. 34(4), 2010: 559-565). Different volume ratio of the hydrolysate mimic and organic solvents, such as (5:1), (3:1), (2:1), (1:1) and (1:2) (vaqueous:vorganic) were tried in order to minimize extractant expenditure. Organic and aqueous phase mixing was carried out by a propeller impeller. Rotation rate (100, 200, 250, 300 and 400 rpm) and operation-time (15, 30, 45, 60 and 90 min) were tested at room temperature (25° C.). A comparative study between settling through separating funnel vs. centrifugal force assisted separation was also made to guarantee an optimal recovery of the broth phase.
A complex mixture of several reduced sugar compounds (e.g. as glucose, fructose, and xylose) and microbial inhibitors (furfural, HMF, acetic acid, levulinic acid, vanillin, vanillic acid, feluric acid and syringaldehyde) were produced during the pretreatment step (hydrolysis). In order to analyse these compounds, liquid samples were collected and analyzed using liquid chromatography-mass spectrometry (LC-MS) and liquid chromatography-tandem mass spectrometry (LC/MS-MS) equipped with a ZORBAX Carbohydrate column (5 μm, 150×4.6 mm ID column) (Agilent Technologies, USA) with D6 glucose as the internal standard and a Biobasic-18 column (5 μm, 250×4.6 mm ID) (Agilent Technologies, USA) with phenylethanol-D5 as the internal standard. […] Methanol water (8:2) and acetonitrile water (8.5:1.5) were used to dilute the sample before inhibitor and carbohydrate analysis. […]

cellulase enzyme = settings: cited from earlier work
[3] = test system: Clostridium acetobutylicum NRRL B-582 (ATCC-824) (CA); test: Bio-compatibility (solvent toxicity) batch ABE fermentation, CA; settings: for ABE / Butanol: CA
Description: (§1) Clostridium acetobutylicum NRRL B-582 (ATCC-824) (CA) and Clostridium beijerinckii NRRL B-466(CB) were considered for current investigation to produce bio-butanol from different brewery industry wastes. They were kindly provided by Agricultural Research Station, USDA (USA). The microorganisms were grown and maintained in peptone-yeast extract-glucose (PYG) media under anaerobic condition (vegetative growth) at 37±1° C. and 150 rpm for 24 h and 17 h, respectively, before being transferred into the fermentation medium. The medium (g L^−1) comprised: glucose (10); yeast extract (10); peptone (5); tryptone (5); cysteine-HCl (0.5); K2HPO4 (2.04); KH2PO4 (0.04); FeSO4*7H2O (1.1×10^−3); CaCl2 (8×10^−3); MgSO4*7H2O (0.0192); NaCl (0.08); and NaHCO3 (0.4). 125 mL serum bottles (working volume 50 mL) were used for both butanol production and inoculum development (Maiti et al., January 2016, Maiti et al., August 2015). Anaerobic conditions were maintained within the bottle by sparging N2 for 10 minutes and immediately sealed by an aluminum crimp seal containing silicone septum (Fisher scientific, Canada) by means of a hand operated crimper (E-Z Crimper™, VWR, Ontario, Canada). Prior to culture development, the medium was sterilized for 20 min at 121±1° C. About 10% (v/v) (dry cell weight […]) of microbial culture in its exponential phase of growth (OD600nm=1.3-1.5) was used as inoculum for all the experiments conducted in this investigation.
(§2) Set-1, set-4 and set-5 were included as control-1, control-2 and control-3 respectively. All the experiments were carried out in P2 nutrient media as described later in batch fermentation section.
(§3) Batch fermentation was performed in 125 mL serum vials (working volume of 50 mL) at pH 6.7±0.1. The P2 medium was sterilized at 121±1° C. for 20 min. Prior to fermentation, anaerobic conditions for each bottle were maintained by sparging the medium with N2 for 10 minutes and immediately closing with an aluminum crimp seal containing silicon septum (Fisher scientific, Canada) by means of a hand-operated crimper (E-Z Crimper™, VWR, Ontario, Canada). A modified P2 medium, with the following composition, was used for fermentation experiments: Buffer→KH2PO450 g/L, K2HPO450 g/L, ammonium acetate 220 g/L; Minerals→MgSO4*7H2O 20 g/L, MnSO4*H2O 1 g/L, FeSO4*7H2O 1 g/L, NaCl 1 g/L; Vitamins→thiamin 0.1 g/L, biotin 0.001 g/L). Since brewery industry wastes were already enriched with yeast protein, no additional yeast protein nor peptone were supplemented.
(§4) The fermentation was initiated by inoculating the P2 medium with the seed cultures at a ratio of 10% (v:v). […] Fermentation experiments were performed at 37±1° C. with shaking at 150 rpm for 72 h in duplicates. 1 mL of culture broth from each batch assay was used for metabolite analysis. Data described here present average values from duplicate runs for duplicate samples.
(§5) To determine the different metabolites produced during ABE fermentation (i.e. butanol, ethanol, acetone, butyric acid, and acetic acid) liquid samples from each fermentation broth were collected and analyzed using gas chromatography (GC) (GC7890B, Agilent Technologies, USA) equipped with a FID detector and a HP-INNOWax™ column (30 m, 0.25 mm ID, 0.25 μm df). Isobutanol was used as the internal standard. Before injecting the sample (1 mL) in the GC for products analysis, the sample was centrifuged for 5 minutes at 7650×g and the supernatant was filtered by 0.45 μm syringe filter. The GC conditions comprised: helium carrier gas at a flow rate of 1 mL/min with a temperature ramp from the initial temperature of 50° C. to 150° C.

[4] = test system: Clostridium beijerinckii NRRL B-466 (CB); test: Bio-compatibility (solvent toxicity) batch ABE fermentation, CB
Description: as §1, §2, §3, §4, §5

[5] = homogenizer rotational speed 100 rpm
[6] = homogenizer rotational speed 200 rpm
[7] = homogenizer rotational speed 250 rpm
[8] = homogenizer rotational speed 300 rpm
[9] = homogenizer rotational speed 400 rpm
[10] = Control-2 (glucose + BIS) + extraction (2:1 mimic:organic solvent) before fermentation
[11] = Set-7 (10 times diluted BIS) + extraction (2:1)
[12] = Set-8 (50 times diluted BIS) + extraction (2:1)
[13] = Extraction 1, hydrolysate mimic
[14] = Extraction 2, hydrolysate mimic
[15] = Extraction 3, hydrolysate mimic
[16] = Extraction 4, hydrolysate mimic
[17] = first stage, ratio 2:1, hydrolysate mimic
[18] = simulated synthetic media as well as waste hydrolysate, ex-situ detoxification

Compound: COc1cc(/C=C/C(=O)O)ccc1O [Ferulic acid, ferulic acid]
- Inhibitory concentration [1]: > 0.3 g/L
- Concentration that inhibited butanol production [1]: 1. (>0.3 g/L) inhibited butanol production
- Inhibitor extraction, phase separation by centrifugal force [2, 5]: 97%
- Inhibitor extraction, phase separation by separating funnel [2, 5]: 94%
- Inhibitor extraction, phase separation by centrifugal force [2, 6]: 96%
- Inhibitor extraction, phase separation by separating funnel [2, 6]: 94%
- Inhibitor extraction, phase separation by centrifugal force [2, 7]: 97%
- Inhibitor extraction, phase separation by separating funnel [2, 7]: 93%
- Inhibitor extraction, phase separation by centrifugal force [2, 8]: 95%
- Inhibitor extraction, phase separation by separating funnel [2, 8]: 94%
- Inhibitor extraction, phase separation by centrifugal force [2, 9]: 97%
- Inhibitor extraction, phase separation by separating funnel [2, 9]: 96%

Compound: COc1cc(C=O)cc(OC)c1O [Syringaldehyde, syringaldehyde]
- Concentration showing strong inhibition on cellulase enzyme activity (cellulase enzyme): 1. (0.05 g/L) showed strong inhibition
- Inhibitory concentration [1]: >0.05 g/L
- Concentration that stopped ABE production [1]: 2. (0.3-1.0 g/L) stopped ABE production
- Inhibitor extraction, phase separation by centrifugal force [2, 5]: 100%
- Inhibitor extraction, phase separation by separating funnel [2, 5]: 100%
- Inhibitor extraction, phase separation by centrifugal force [2, 6]: 100%
- Inhibitor extraction, phase separation by separating funnel [2, 6]: 100%
- Inhibitor extraction, phase separation by centrifugal force [2, 7]: 100%
- Inhibitor extraction, phase separation by separating funnel [2, 7]: 100%
- Inhibitor extraction, phase separation by centrifugal force [2, 8]: 100%
- Inhibitor extraction, phase separation by separating funnel [2, 8]: 100%
- Inhibitor extraction, phase separation by centrifugal force [2, 9]: 100%
- Inhibitor extraction, phase separation by separating funnel [2, 9]: 100%

Compound: COc1cc(C(=O)O)ccc1O [Vanillic acid, vanillic acid]
- Inhibitory concentration [1]: >1 g/L
- Concentration that stopped bio-butanol production [1]: 1. (>1 g/L) stopped bio-butanol
- Inhibitor extraction, phase separation by centrifugal force [2, 5]: 92%
- Inhibitor extraction, phase separation by separating funnel [2, 5]: 90%
- Inhibitor extraction, phase separation by centrifugal force [2, 6]: 93%
- Inhibitor extraction, phase separation by separating funnel [2, 6]: 91%
- Inhibitor extraction, phase separation by centrifugal force [2, 7]: 94%
- Inhibitor extraction, phase separation by separating funnel [2, 7]: 93%
- Inhibitor extraction, phase separation by centrifugal force [2, 8]: 94%
- Inhibitor extraction, phase separation by separating funnel [2, 8]: 93%
- Inhibitor extraction, phase separation by centrifugal force [2, 9]: 96%
- Inhibitor extraction, phase separation by separating funnel [2, 9]: 93%

Compound: CCCCC(CC)COC(=O)CCCCCCCCC(=O)OCC(CC)CCCC (stereo not shown) [bis-(2-ethylhexyl) sebacate]
- ABE [3, 10]: 13.96 ± 0.3 g/L
- Butanol [3, 10]: 10.25 ± 0.5 g/L
- ABE [3, 11]: 12.5 ± 0.2 g/L
- Butanol [3, 11]: 9.13 ± 0.2 g/L
- ABE [3, 12]: 12.2 ± 0.3 g/L
- Butanol [3, 12]: 9.1 ± 0.3 g/L
- Average increase in bio-butanol production in comparison with control 1/set-1 ([3]; set-9: control 2 after extraction, both bacterial strains): 8-10%
- ABE [4, 10]: 13.15 ± 0.3 g/L
- Butanol [4, 10]: 9.58 ± 0.2 g/L
- ABE [4, 11]: 11.48 ± 0.4 g/L
- Butanol [4, 11]: 8.62 ± 0.3 g/L
- ABE [4, 12]: 11.0 ± 0.3 g/L
- Butanol [4, 12]: 8.4 ± 0.2 g/L
- Ferulic acid removal [2, 13]: 97%
- Furfural removal [2, 13]: 79%
- HMF removal [2, 13]: 78%
- Syringaldehyde removal [2, 13]: 93%
- TRS removal [2, 13]: 0%
- Vanillic acid removal [2, 13]: 93%
- Vanillin removal [2, 13]: 95%
- TRS (total reducing sugar) after extraction [2, 13]: 52.00 g/L
- Ferulic acid removal [2, 14]: 99%
- Furfural removal [2, 14]: 97%
- HMF removal [2, 14]: 96%
- Syringaldehyde removal [2, 14]: 99%
- TRS removal [2, 14]: 0%
- Vanillic acid removal [2, 14]: 97%
- Vanillin removal [2, 14]: 97%
- TRS (total reducing sugar) after extraction [2, 14]: 52.00 g/L
- Ferulic acid removal [2, 15]: 100%
- Furfural removal [2, 15]: 100%
- HMF removal [2, 15]: 100%
- Syringaldehyde removal [2, 15]: 100%
- TRS removal [2, 15]: 0%
- Vanillic acid removal [2, 15]: 100%
- Vanillin removal [2, 15]: 100%
- TRS (total reducing sugar) after extraction [2, 15]: 52.00 g/L
- Ferulic acid removal [2, 16]: 100%
- Furfural removal [2, 16]: 100%
- HMF removal [2, 16]: 100%
- Syringaldehyde removal [2, 16]: 100%
- TRS removal [2, 16]: 0%
- Vanillic acid removal [2, 16]: 100%
- Vanillin removal [2, 16]: 100%
- TRS (total reducing sugar) after extraction [2, 16]: 52.00 g/L
- Extraction efficiency for phenolic compounds [2, 17]: > 93%
- Extraction efficiency towards furan derivatives [2, 17]: 78-79%
- Removal of the inhibitors from the mimic synthetic media ([2]; set-10 and set-11 (10 and 50 times diluted BIS), extraction 2:1): > 99%
- Extraction of furan derivatives [2, 18]: More than 80%
- Extraction of phenolic compounds [2, 18]: more than 95%
- Extraction of reducing sugar [2, 18]: almost no extraction

Source: patent US10662445B2, “Process for the production of bio-butanol by fermentation of glycosidic waste matter” (priority 2018, dated 2020)
